Assay results published in PubChem BioAssay AID792 (PCMD, 2007).
Records with an inconclusive call do not appear. Activity calls are given as the source filed them. No rule for the calls is given here.

Target: S. cerevisiae eIF2B mutant, luciferase reporter luminescence
Assay: eIF2B reporter inhibitors in yeast strains, dose response, S. cerevisiae, mutant, wild-type, luminescence, growth (AID 792)
[1] = measured here: mutant yeast growth
[2] = S. cerevisiae wild-type, luminescence

O=C(CCc1ccccc1)Nc1ccc(Cl)cn1
IC50: > 100 µM (inactive) | IC50 [1]: > 100 µM

Cc1cc(C)n(-c2cc(C(C)(C)C)nc3c(-c4ccc(Cl)cc4)cnn23)n1
IC50: > 100 µM (inactive) | IC50 [1]: > 100 µM

CCCn1nnc(NC(=O)C(c2ccccc2)c2ccccc2)n1
IC50: > 100 µM (inactive) | IC50 [1]: > 100 µM

COc1ccc(N(C(=O)c2ccco2)S(=O)(=O)c2cccs2)cc1
IC50: > 100 µM (inactive) | IC50 [1]: > 100 µM

O=C(CCN1CCN(C(=O)c2ccco2)CC1)Nc1ccc(F)cc1
IC50: > 100 µM (inactive) | IC50 [1]: > 100 µM

CCOCCCNC(=O)c1c[nH]c2ccc(C)cc2c1=O
IC50: > 100 µM (inactive) | IC50 [1]: > 100 µM

CCOC(=O)N1CCN(C(=O)COc2cc(=O)n(CC)c3ccccc23)CC1
IC50: > 100 µM (inactive) | IC50 [1]: > 100 µM

COc1ccc(Cl)cc1C(=O)N1CCN(c2ccccn2)CC1
IC50: > 100 µM (inactive) | IC50 [1]: > 100 µM

CC1(C)CC(=O)C=C(NCCCNC2CCCCC2)C1
IC50: > 100 µM (inactive) | IC50 [1]: > 100 µM

O=c1/c(=C/c2ccc(O)cc2)sc2n1CCCN=2
IC50: inactive | IC50 [2]: 2.11 µM | IC50 [1]: > 100 µM

COc1ccc(CCNC(=O)c2ccc(N3CCCC3=O)cc2)cc1OC
IC50: > 100 µM (inactive) | IC50 [2]: > 100 µM | IC50 [1]: > 100 µM

CCN(C(C)=O)c1nc(CSc2nnc(NC(C)C)s2)cs1
IC50: > 100 µM (inactive) | IC50 [1]: > 100 µM

Cc1nc(-c2cccc(S(=O)(=O)N3CC(C)CC(C)C3)c2)cs1 (stereo not given)
IC50: > 100 µM (inactive) | IC50 [1]: > 100 µM

COc1ccccc1NC(=S)NNC(=O)c1ccccc1
IC50: > 100 µM (inactive) | IC50 [1]: > 100 µM

Cc1c(C(=O)N2CCCC2)sc(NC(=O)c2ccc(Cl)cc2)c1C#N
IC50: > 100 µM (inactive) | IC50 [1]: > 100 µM

O=C(Nc1ccc(Cl)cn1)c1ccccc1F
IC50: > 100 µM (inactive) | IC50 [1]: > 100 µM

Cc1cc(NC(=O)CN2CCCC(C)C2)n(-c2nc3ccccc3s2)n1 (stereo not given)
IC50: > 100 µM (inactive) | IC50 [1]: > 100 µM

Cc1[nH]c(=O)c(C#N)c2c1CSC(C)(C)C2
IC50: > 100 µM (inactive) | IC50 [1]: > 100 µM

O=C(Nc1cccnc1)c1ccccc1Oc1ccccc1
IC50: > 100 µM (inactive) | IC50 [1]: > 100 µM

COc1ccc(OC)c(N/C(C)=C/C(=O)c2ccc(C)o2)c1
IC50: > 100 µM (inactive) | IC50 [2]: > 100 µM | IC50 [1]: > 100 µM

Cc1ccc(C(=O)NCc2ccco2)cc1S(=O)(=O)Nc1cccc(C)c1C
IC50: > 100 µM (inactive) | IC50 [1]: > 100 µM

CCOC(=O)c1c(NC(=O)COC)sc2c1CCCC2
IC50: > 100 µM (inactive) | IC50 [1]: > 100 µM

COCC(=O)NC(c1ccccc1)c1ccccc1
IC50: > 100 µM (inactive) | IC50 [1]: > 100 µM

O=c1c(Cl)c(N2CCCCC2)cnn1-c1nc2ccccc2[nH]1
IC50: inactive | IC50 [2]: 3.69 µM | IC50 [1]: > 100 µM

COc1cccc(-n2ccnc2SCC(=O)Nc2cc(OC)ccc2OC)c1
IC50: > 100 µM (inactive) | IC50 [1]: > 100 µM

CCOC(=O)Cc1csc(NC(NC(=O)CC)(C(F)(F)F)C(F)(F)F)n1
IC50: > 100 µM (inactive) | IC50 [1]: > 100 µM

COC(=O)NC(=C(Cl)Cl)S(=O)(=O)c1ccccc1
IC50: > 100 µM (inactive) | IC50 [1]: > 100 µM

CCOC(=O)Cn1c(=O)c(-c2ccccc2NCc2ccccc2)nc2ccccc21
IC50: > 100 µM (inactive) | IC50 [1]: > 100 µM

Cc1ncc(CO)c2cc(C(N)=O)c(=Nc3ccccc3)oc12
IC50: > 100 µM (inactive) | IC50 [1]: > 100 µM

COc1ccc(C(=O)CSc2nnc(COc3ccccc3)n2Cc2ccco2)cc1
IC50: > 100 µM (inactive) | IC50 [1]: > 100 µM

CCOc1ccc(S(=O)(=O)N2CCC(C(N)=O)CC2)c2ccccc12
IC50: > 100 µM (inactive) | IC50 [1]: > 100 µM

CCOC(=O)c1sc(N)c(C#N)c1CSc1nc2ccc(C)cc2[nH]1
IC50: > 100 µM (inactive) | IC50 [1]: > 100 µM

COc1cc(C(=S)N2CCCC2)cc(OC)c1O
IC50: > 100 µM (inactive) | IC50 [1]: > 100 µM

COc1ccc(OC)c(N(CC(=O)Nc2ccc(NC(C)=O)cc2)S(C)(=O)=O)c1
IC50: > 100 µM (inactive) | IC50 [1]: > 100 µM

COC(=O)c1cccc(NC(=O)c2ccc(S(=O)(=O)N3CCN(C)CC3)cc2)c1
IC50: > 100 µM (inactive) | IC50 [1]: > 100 µM

CCOC(=O)COc1ccc(S(=O)(=O)NCc2ccco2)cc1
IC50: > 100 µM (inactive) | IC50 [1]: > 100 µM

COc1ccc(C2SCC(=O)Nc3c2c(C)nn3C2CCOC(C)(C)C2)cc1 (stereo not given)
IC50: > 100 µM (inactive) | IC50 [1]: > 100 µM

CCCc1nc(SCC(=O)Nc2cc(C)on2)c2ccccc2n1
IC50: > 100 µM (inactive) | IC50 [1]: > 100 µM

Cn1c(SC2C(=O)CC(C)(C)CC2=O)nnc1-c1ccco1
IC50: > 100 µM (inactive) | IC50 [1]: > 100 µM

Cn1c(=O)[nH]c(=O)c2c1nc(Br)n2CCCCSc1nc2ccccc2o1
IC50: > 100 µM (inactive) | IC50 [1]: > 100 µM

CC(C)C(NC(=O)c1ccccc1)C(=O)NC1=NCCS1 (stereo not given)
IC50: > 100 µM (inactive) | IC50 [1]: > 100 µM

O=C1CNC(=O)N1Cc1ccc(Br)cc1
IC50: > 100 µM (inactive) | IC50 [1]: > 100 µM

Cc1cc(=O)[nH]c(SCc2cc(Cl)ccc2OC(F)F)n1
IC50: > 100 µM (inactive) | IC50 [1]: > 100 µM

COC(=O)Cc1c(C)c2cc(Cl)c(OC(=O)c3ccco3)cc2oc1=O
IC50: > 100 µM (inactive) | IC50 [1]: > 100 µM

Cc1ccnc2nc(C(=O)Nc3ccc(N4CCOCC4)cc3)nn12
IC50: inactive | IC50 [2]: 11.1 µM | IC50 [1]: > 100 µM
